# In patent publication US20110152166A1, “METHOD OF MODULATION OF PROTEIN PHOSPHORYLATION-DEPENDENT CONFORMATIONAL TRANSITIONS WITH LOW MOLECULAR WEIGHT COMPOUNDS” (priority 2006, published 2011):
# Read-outs that look alike come from different tables or passages of the source. Square brackets hold non-standard residues; d marks the D form. Ends that are not written are not given here. pS = N[C@@H](COP(=O)(O)O)C(=O)O
# Tests used:
# Assay type in all cases: biochemical
# GST-PDK1 [Thr148Val] = molecular target: T1, GST-PDK1 [Thr148Val] (Homo sapiens, UniProt O15530, T148V); assay: PDK1 activity assay with T308tide; settings: for activation of PDK1 mutant (in words): PDK1[Thr148Val], 20 μM
# T1 construct: different protein constructs, comprising the full length protein or the catalytic domain alone; made in house; host or cells: HEK293 cells (pEBG-2T-PDK1 mutant)
# T1 sequence (O15530 1-556 T148V): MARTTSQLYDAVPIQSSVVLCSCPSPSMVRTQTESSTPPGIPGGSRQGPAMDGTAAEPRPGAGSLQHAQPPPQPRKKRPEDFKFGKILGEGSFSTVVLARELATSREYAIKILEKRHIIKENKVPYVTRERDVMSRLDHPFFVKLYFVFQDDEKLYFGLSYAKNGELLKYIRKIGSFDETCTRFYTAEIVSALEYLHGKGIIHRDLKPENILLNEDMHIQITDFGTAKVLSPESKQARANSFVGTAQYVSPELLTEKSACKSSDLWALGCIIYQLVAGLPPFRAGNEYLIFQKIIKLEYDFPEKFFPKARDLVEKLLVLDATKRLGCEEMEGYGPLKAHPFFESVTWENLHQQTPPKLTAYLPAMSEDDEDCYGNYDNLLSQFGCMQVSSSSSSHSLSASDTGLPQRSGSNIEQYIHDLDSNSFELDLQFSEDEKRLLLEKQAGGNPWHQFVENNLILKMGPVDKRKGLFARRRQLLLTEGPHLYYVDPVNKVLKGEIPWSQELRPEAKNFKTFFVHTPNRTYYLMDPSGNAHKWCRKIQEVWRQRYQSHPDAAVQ
# ΔN-SGK[Ser422Asp] = molecular target: T2, ΔN-SGK[Ser422Asp] (Homo sapiens, UniProt O00141, S422D); assay: AGC kinase panel activity assay (Crosstide); settings: for SGK1 (%) activity: 1% DMSO = 100%
# T2 construct: made in house; host or cells: HEK293
# T2 sequence (O00141 61-431 S422D limits assumed): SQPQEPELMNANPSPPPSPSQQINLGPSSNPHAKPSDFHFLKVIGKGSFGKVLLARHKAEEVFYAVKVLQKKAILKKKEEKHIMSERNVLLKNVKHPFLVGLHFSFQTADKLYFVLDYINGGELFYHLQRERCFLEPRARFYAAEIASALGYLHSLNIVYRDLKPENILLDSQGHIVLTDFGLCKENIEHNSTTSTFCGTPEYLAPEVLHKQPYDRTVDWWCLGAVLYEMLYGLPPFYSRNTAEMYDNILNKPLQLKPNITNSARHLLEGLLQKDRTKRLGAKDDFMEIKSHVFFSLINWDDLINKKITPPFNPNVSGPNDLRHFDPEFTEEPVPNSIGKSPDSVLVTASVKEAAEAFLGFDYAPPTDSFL
# Procedure: (§1) Protein kinase activity tests were performed essentially as previously described (Balendran et al., 2000; Biondi et al., 2000; Biondi et al., 2001). Substrates used were either MBP (for PKCζ or polypeptides (Crosstide for PKB, S6K, SGK and PRK2; T308tide for PDK1, and Kemptide for PKA). PKA (Sigma) was measured in the presence of 100 μM cAMP. Alternatively, assays were performed in a 96 well format, aliquots spotted on p81 phosphocellulose papers (Whatmann), washed in 0.01% phosphoric acid, dried, and then exposed and analysed using Phospholmager technology (Storm, Molecular Dynamics). Activity measurements were performed in duplicates with less than 10% difference between duplicate pairs. Experiments were repeated at least twice, although most of the experiments were repeated multiple times, with similar results.
# (§2) Activity assays for each kinase were performed as described in Materials and Methods in the presence of 1% DMSO (100%). Except PKA, all protein kinases were produced as a GST-fusion. S6K1, PKBα, SGK mutants used were S6K1-T2-[Thr412Glu], PKBa[Ser473Asp] and ΔN-SGK[Ser422Asp].
# PRK2 = molecular target: T3, PRK2 (Homo sapiens, UniProt Q16513); assay: AGC kinase panel activity assay (Crosstide); settings: for PRK2 (%) activity: 1% DMSO = 100%
# T3 construct: made in house; host or cells: HEK293
# Procedure: as §1, §2
# S6K1-T2-[Thr412Glu] = molecular target: T4, S6K1-T2-[Thr412Glu] (Homo sapiens, UniProt P23443, T412E); assay: AGC kinase panel activity assay (Crosstide); settings: for S6K1 (%) activity: 1% DMSO = 100%
# T4 construct: made in house; host or cells: HEK293
# Procedure: as §1, §2
# PKBa[Ser473Asp] = molecular target: T5, PKBa[Ser473Asp] (Homo sapiens, UniProt P31749, S473D); assay: AGC kinase panel activity assay (Crosstide)
# T5 construct: made in house; host or cells: HEK293
# Procedure: as §1, §2
# T4 sequence (P23443 1-421 T412E limits assumed): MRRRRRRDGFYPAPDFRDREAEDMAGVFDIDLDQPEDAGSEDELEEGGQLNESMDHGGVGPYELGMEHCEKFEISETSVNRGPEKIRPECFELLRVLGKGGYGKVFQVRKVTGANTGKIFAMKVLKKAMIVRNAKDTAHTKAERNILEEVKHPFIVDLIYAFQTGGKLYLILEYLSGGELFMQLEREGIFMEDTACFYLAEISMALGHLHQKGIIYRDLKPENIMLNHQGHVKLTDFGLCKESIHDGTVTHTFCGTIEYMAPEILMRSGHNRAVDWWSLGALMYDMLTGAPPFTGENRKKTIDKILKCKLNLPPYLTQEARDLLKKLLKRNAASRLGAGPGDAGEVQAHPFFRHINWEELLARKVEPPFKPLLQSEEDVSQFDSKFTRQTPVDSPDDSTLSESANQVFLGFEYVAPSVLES
# T5 sequence (P31749 whole entry S473D): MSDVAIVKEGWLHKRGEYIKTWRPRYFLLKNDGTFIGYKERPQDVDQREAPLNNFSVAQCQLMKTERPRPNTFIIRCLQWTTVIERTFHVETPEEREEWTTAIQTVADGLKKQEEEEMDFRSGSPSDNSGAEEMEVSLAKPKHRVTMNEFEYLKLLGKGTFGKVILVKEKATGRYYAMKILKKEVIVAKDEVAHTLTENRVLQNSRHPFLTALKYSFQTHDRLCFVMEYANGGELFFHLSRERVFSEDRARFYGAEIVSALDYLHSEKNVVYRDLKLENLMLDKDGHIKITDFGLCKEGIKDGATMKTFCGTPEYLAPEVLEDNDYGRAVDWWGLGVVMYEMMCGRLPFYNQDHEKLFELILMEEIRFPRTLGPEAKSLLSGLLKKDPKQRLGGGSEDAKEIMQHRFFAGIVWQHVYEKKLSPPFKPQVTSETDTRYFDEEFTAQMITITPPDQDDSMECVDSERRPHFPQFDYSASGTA
# T3 sequence (Q16513 501-984): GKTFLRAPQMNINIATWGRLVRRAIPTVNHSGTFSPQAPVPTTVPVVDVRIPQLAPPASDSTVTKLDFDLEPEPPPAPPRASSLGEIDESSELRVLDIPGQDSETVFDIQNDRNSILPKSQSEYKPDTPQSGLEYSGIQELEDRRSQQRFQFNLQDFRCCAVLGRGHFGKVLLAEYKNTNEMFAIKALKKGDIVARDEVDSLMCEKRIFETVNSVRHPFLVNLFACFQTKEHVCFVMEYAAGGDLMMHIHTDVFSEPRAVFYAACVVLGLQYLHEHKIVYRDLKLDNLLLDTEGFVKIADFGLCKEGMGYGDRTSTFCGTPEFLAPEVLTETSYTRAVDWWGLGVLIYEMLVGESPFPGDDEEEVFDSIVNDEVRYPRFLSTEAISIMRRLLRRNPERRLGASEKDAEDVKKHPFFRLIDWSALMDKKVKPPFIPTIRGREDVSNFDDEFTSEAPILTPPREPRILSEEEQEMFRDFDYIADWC
activation of PDK1 mutant (in words) (GST-PDK1 [Thr148Val]),SGK1 (%) activity (ΔN-SGK[Ser422Asp]; 20 μM compound) [%],SGK1 (%) activity (ΔN-SGK[Ser422Asp]; 200 μM compound) [%],PRK2 (%) activity (PRK2; 20 μM compound) [%],PRK2 (%) activity (PRK2; 200 μM compound) [%],S6K1 (%) activity (S6K1-T2-[Thr412Glu]; 20 μM compound) [%],S6K1 (%) activity (S6K1-T2-[Thr412Glu]; 200 μM compound) [%],Compound,other results
still activated,97,61,103,110,109,110,O=C(O)CSC(CC(=O)c1ccc(Cl)cc1)c1ccccc1 (stereo not shown) [Compound 1],"Max. activity (GST-PDK1 [Thr148Val]; GST-PDK1 [Thr148Val]): 2.44 ± 0.26 U/mg; AC50 (GST-PDK1 [Thr148Val]; GST-PDK1 [Thr148Val], read-out: AC50): 102 ± 19 µM; effect on SGK1 activity (in words) (ΔN-SGK[Ser422Asp]; 20 μM): no significant effect; effect on PRK2 activity (in words) (PRK2; 20 μM): no significant effect; effect on S6K activity (in words) (S6K1-T2-[Thr412Glu]; 20 μM): no significant effect; effect on PKBa/AKT1 activity (in words) (PKBa[Ser473Asp]; 20 μM): no significant effect; activity at 20 µM (PKBa[Ser473Asp]; 20 μM compound, 1% DMSO = 100%, read-out: PKBα (%) activity): 89%; activity at 200 µM (PKBa[Ser473Asp]; 200 μM compound, 1% DMSO = 100%, read-out: PKBα (%) activity): 85%"
–,89,92,106,89,109,120,COC(=O)CSC(CC(=O)c1ccc(Cl)cc1)c1ccccc1 (stereo not shown) [Compound 2],"PKBα (%) activity (PKBa[Ser473Asp]; 20 μM compound, 1% DMSO = 100%): 92%; PKBα (%) activity (PKBa[Ser473Asp]; 200 μM compound, 1% DMSO = 100%): 106%"
–,–,–,–,–,–,–,"REPRILSEEEQEMFRDFDYIADWC [PIFtide, reference compound]",AC50 (GST-PDK1 [Thr148Val]; GST-PDK1 [Thr148Val]): INH
completely abolished,–,–,–,–,–,–,P-HM-RSK: phosphorylated HM polypeptide of RSK: KGAGGGGFRGFS(P)FVA (KGAGGGGFRGF[pS]FVA),–
